ChEMBL document CHEMBL3885861, “Open TG-GATES”

Species on record: Rattus norvegicus
Test: Open TG-GATES - Regimen: Daily Repeat
Format: toxicity, organism-based, Sprague-Dawley
Design: regimen Daily Repeat, gender Male, age 6 weeks
Details: in vivo, po, 0 mg/kg, route gavage, dose level Control; for APTT / Bas / Eos / Fbg / Hb / Ht / Lym / MCH / MCHC / MCV / Mono / Neu / PT / Plat / RBC / Ret / WBC: tissue Blood; for KIDNEY_L / KIDNEY_R / KIDNEY_TOTAL: tissue Kidney; for LIVER: tissue Liver; for A/G / ALP / ALT / AST / BUN / CRE / Ca / Cl / DBIL / GLC / IP / K / LDH / Na / PL / RALB / TBIL / TC / TG / TP / gamma-GTP: tissue Plasma

NC(=O)N/N=C/c1ccc([N+](=O)[O-])o1 [NITROFURAZONE]
TERMINAL_BW (72 h, time 3 day): 218.5 g | APTT (72 h, time 3 day): 14.6 s | Bas (72 h, time 3 day): 0% | Eos (72 h, time 3 day): 0.6% | Fbg (72 h, time 3 day): 279.4 mg/dL | Hb (72 h, time 3 day): 12.9 g/dL | Ht (72 h, time 3 day): 39.6% | Lym (72 h, time 3 day): 81% | MCH (72 h, time 3 day): 21 pg | MCHC (72 h, time 3 day): 32.6% | MCV (72 h, time 3 day): 64.4 fL | Mono (72 h, time 3 day): 2.6% | Neu (72 h, time 3 day): 15% | PT (72 h, time 3 day): 14.5 s | Plat (72 h, time 3 day): 111.2 x10_4/uL | RBC (72 h, time 3 day): 614.6 x10_4/ul | Ret (72 h, time 3 day): 8.9% | WBC (72 h, time 3 day): 76.9 x10_2/uL | KIDNEY_L (72 h, time 3 day): 0.9 g | KIDNEY_R (72 h, time 3 day): 0.9 g | KIDNEY_TOTAL (72 h, time 3 day): 1.7 g | LIVER (72 h, time 3 day): 9.8 g | A/G (72 h, time 3 day): 0.9 | ALP (72 h, time 3 day): 2147 IU/L | ALT (72 h, time 3 day): 51.2 IU/L | AST (72 h, time 3 day): 78.2 IU/L | BUN (72 h, time 3 day): 16 mg/dL | CRE (72 h, time 3 day): 0.2 mg/dL | Ca (72 h, time 3 day): 11.4 mg/dL | Cl (72 h, time 3 day): 106.2 meq/L | DBIL (72 h, time 3 day): 0.016 mg/dL | GLC (72 h, time 3 day): 178.2 mg/dL | IP (72 h, time 3 day): 7.9 mg/dL | K (72 h, time 3 day): 4.4 meq/L | LDH (72 h, time 3 day): 79 IU/L | Na (72 h, time 3 day): 141.6 meq/L | PL (72 h, time 3 day): 161.2 mg/dL | RALB (72 h, time 3 day): 2.6 g/dL | TBIL (72 h, time 3 day): 0.046 mg/dL | TC (72 h, time 3 day): 92.4 mg/dL | TG (72 h, time 3 day): 100.8 mg/dL | TP (72 h, time 3 day): 5.6 g/dL | gamma-GTP (72 h, time 3 day): 1 IU/L | TERMINAL_BW ([…], time 7 day): 259.3 g | TERMINAL_BW ([…], time 14 day): 324.7 g | TERMINAL_BW ([…], time 28 day): 406 g | APTT ([…], time 7 day): 16.9 s | Bas ([…], time 7 day): 0.2% | Eos ([…], time 7 day): 1% | Fbg ([…], time 7 day): 268 mg/dL | Hb ([…], time 7 day): 13.4 g/dL | Ht ([…], time 7 day): 39.9% | Lym ([…], time 7 day): 75% | MCH ([…], time 7 day): 21.1 pg | MCHC ([…], time 7 day): 33.5% | MCV ([…], time 7 day): 62.8 fL | Mono ([…], time 7 day): 3.2% | Neu ([…], time 7 day): 20.2% | PT ([…], time 7 day): 14.4 s | Plat ([…], time 7 day): 112.6 x10_4/uL | RBC ([…], time 7 day): 636.4 x10_4/ul | Ret ([…], time 7 day): 7% | WBC ([…], time 7 day): 96.1 x10_2/uL | APTT ([…], time 14 day): 14.3 s | Bas ([…], time 14 day): 0.2% | Eos ([…], time 14 day): 0.8% | Fbg ([…], time 14 day): 303 mg/dL | Hb ([…], time 14 day): 13.6 g/dL | Ht ([…], time 14 day): 41.4% | Lym ([…], time 14 day): 77.8% | MCH ([…], time 14 day): 20.7 pg | MCHC ([…], time 14 day): 32.8% | MCV ([…], time 14 day): 63.2 fL | Mono ([…], time 14 day): 2% | Neu ([…], time 14 day): 18.2% | PT ([…], time 14 day): 14.4 s | Plat ([…], time 14 day): 121.6 x10_4/uL | RBC ([…], time 14 day): 657.2 x10_4/ul | Ret ([…], time 14 day): 5.7% | WBC ([…], time 14 day): 91.3 x10_2/uL | APTT ([…], time 28 day): 16.2 s | Bas ([…], time 28 day): 0% | Eos ([…], time 28 day): 1.2% | Fbg ([…], time 28 day): 275.6 mg/dL | Hb ([…], time 28 day): 15 g/dL | Ht ([…], time 28 day): 44.5% | Lym ([…], time 28 day): 77% | MCH ([…], time 28 day): 19.5 pg | MCHC ([…], time 28 day): 33.7% | MCV ([…], time 28 day): 58 fL | Mono ([…], time 28 day): 1.8% | Neu ([…], time 28 day): 19.4% | PT ([…], time 28 day): 14.9 s | Plat ([…], time 28 day): 105 x10_4/uL | RBC ([…], time 28 day): 767.2 x10_4/ul | Ret ([…], time 28 day): 2.6% | WBC ([…], time 28 day): 74.7 x10_2/uL | KIDNEY_L ([…], time 7 day): 1.1 g | KIDNEY_R ([…], time 7 day): 1.1 g | KIDNEY_TOTAL ([…], time 7 day): 2.1 g | KIDNEY_L ([…], time 14 day): 1.3 g | KIDNEY_R ([…], time 14 day): 1.2 g | KIDNEY_TOTAL ([…], time 14 day): 2.5 g | KIDNEY_L ([…], time 28 day): 1.5 g | KIDNEY_R ([…], time 28 day): 1.3 g | KIDNEY_TOTAL ([…], time 28 day): 2.8 g | LIVER ([…], time 7 day): 12.2 g | LIVER ([…], time 14 day): 15.1 g | LIVER ([…], time 28 day): 16.8 g | A/G ([…], time 7 day): 0.8 | ALP ([…], time 7 day): 1832.4 IU/L | ALT ([…], time 7 day): 45.8 IU/L | AST ([…], time 7 day): 69 IU/L | BUN ([…], time 7 day): 15.6 mg/dL | CRE ([…], time 7 day): 0.2 mg/dL | Ca ([…], time 7 day): 11.2 mg/dL | Cl ([…], time 7 day): 104 meq/L | DBIL ([…], time 7 day): 0.022 mg/dL | GLC ([…], time 7 day): 196.2 mg/dL | IP ([…], time 7 day): 7.5 mg/dL | K ([…], time 7 day): 3.6 meq/L | LDH ([…], time 7 day): 69 IU/L | Na ([…], time 7 day): 141.6 meq/L | PL ([…], time 7 day): 146.4 mg/dL | RALB ([…], time 7 day): 2.6 g/dL | TBIL ([…], time 7 day): 0.054 mg/dL | TC ([…], time 7 day): 76.2 mg/dL | TG ([…], time 7 day): 93.2 mg/dL | TP ([…], time 7 day): 5.6 g/dL | gamma-GTP ([…], time 7 day): 1 IU/L | A/G ([…], time 14 day): 0.8 | ALP ([…], time 14 day): 1410 IU/L | ALT ([…], time 14 day): 43.4 IU/L | AST ([…], time 14 day): 65.6 IU/L | BUN ([…], time 14 day): 17.4 mg/dL | CRE ([…], time 14 day): 0.2 mg/dL | Ca ([…], time 14 day): 11 mg/dL | Cl ([…], time 14 day): 105.4 meq/L | DBIL ([…], time 14 day): 0.012 mg/dL | GLC ([…], time 14 day): 195.4 mg/dL | IP ([…], time 14 day): 7.5 mg/dL | K ([…], time 14 day): 4 meq/L | LDH ([…], time 14 day): 70 IU/L | Na ([…], time 14 day): 142.8 meq/L | PL ([…], time 14 day): 159.8 mg/dL | RALB ([…], time 14 day): 2.6 g/dL | TBIL ([…], time 14 day): 0.046 mg/dL | TC ([…], time 14 day): 79.2 mg/dL | TG ([…], time 14 day): 119 mg/dL | TP ([…], time 14 day): 5.8 g/dL | gamma-GTP ([…], time 14 day): 1.2 IU/L | A/G ([…], time 28 day): 0.8 | ALP ([…], time 28 day): 1109.8 IU/L | ALT ([…], time 28 day): 38 IU/L | AST ([…], time 28 day): 62.4 IU/L | BUN ([…], time 28 day): 16.6 mg/dL | CRE ([…], time 28 day): 0.2 mg/dL | Ca ([…], time 28 day): 10.9 mg/dL | Cl ([…], time 28 day): 104 meq/L | DBIL ([…], time 28 day): 0.014 mg/dL | GLC ([…], time 28 day): 192 mg/dL | IP ([…], time 28 day): 6.9 mg/dL | K ([…], time 28 day): 3.4 meq/L | LDH ([…], time 28 day): 61.2 IU/L | Na ([…], time 28 day): 145.2 meq/L | PL ([…], time 28 day): 139.6 mg/dL | RALB ([…], time 28 day): 2.7 g/dL | TBIL ([…], time 28 day): 0.068 mg/dL | TC ([…], time 28 day): 60.6 mg/dL | TG ([…], time 28 day): 145.4 mg/dL | TP ([…], time 28 day): 6.1 g/dL | gamma-GTP ([…], time 28 day): 0.8 IU/L
